How the values were obtained:
Assay type in all cases: in vivo
[1] = system: Amaranthus retroflexus (AMARE); assay: Pre-emergence herbicidal action against AMARE; details: 80 g/ha, scored visually after about 3 weeks vs untreated controls
Source text: (§1) AMARE: Amaranthus retroflexus 1. Pre-Emergence Herbicidal Action and Crop Plant Compatibility Seeds of monocotyledonous and dicotyledonous weed plants and crop plants are placed in plastic or organic planting pots and covered with soil. The compounds of the invention, formulated in the form of wettable powders (WP) or as emulsion concentrates (EC), are then applied onto the surface of the covering soil as aqueous suspension or emulsion with addition of 0.5% additive at a water application rate of […] (converted). After the treatment, the pots are placed in a greenhouse and kept under good growth conditions for the trial plants. After about 3 weeks, the effect of the preparations is scored visually in comparison with untreated controls as percentages. The tables below show the herbicidal activity of numerous compounds according to the invention against important harmful plants. For example, 100% activity=the plants have died, 0% activity=like control plants.

[2] = system: Stellaria media (STEME); assay: Pre-emergence herbicidal action against STEME; details: 80 g/ha, scored visually after about 3 weeks vs untreated controls
Source text: as §1, with “STEME: Stellaria media” for “AMARE: Amaranthus retroflexus”

[3] = system: Viola tricolor (VIOTR); assay: Pre-emergence herbicidal action against VIOTR; details: 80 g/ha, scored visually after about 3 weeks vs untreated controls
Source text: as §1, with “VIOTR: Viola tricolor” for “AMARE: Amaranthus retroflexus”

[4] = system: Setaria viridis (SETVI); assay: Post-emergence herbicidal action against SETVI; details: 20 g/ha, post-emergence at one-leaf stage, rated visually after about 3 weeks vs untreated controls
Protocol: (§2) SETVI: Setaria viridis 2. Post-Emergence Herbicidal Action and Crop Plant Compatibility Seeds of monocotyledonous and dicotyledonous weeds and crop plants are placed in sandy loam in plastic or organic planting pots, covered with soil and cultivated in a greenhouse under controlled growth conditions. 2 to 3 weeks after sowing, the test plants are treated at the one-leaf stage. The compounds of the invention, formulated in the form of wettable powders (WP) or as emulsion concentrates (EC), are then sprayed onto the green parts of the plants as aqueous suspension or emulsion with addition of 0.5% additive at a water application rate of […] (converted). After the test plants had been kept in the greenhouse under optimum growth conditions for about 3 weeks, the activity of the preparations is rated visually in comparison to untreated controls. The tables below show the herbicidal activity of numerous compounds according to the invention against important harmful plants. For example, 100% activity=the plants have died, 0% activity=like control plants.

[5] = system: Amaranthus retroflexus (AMARE); assay: Post-emergence herbicidal action against AMARE; details: 20 g/ha, post-emergence at one-leaf stage, rated visually after about 3 weeks vs untreated controls
Protocol: as §2, with “AMARE: Amaranthus retroflexus” for “SETVI: Setaria viridis”

[6] = system: Stellaria media (STEME); assay: Post-emergence herbicidal action against STEME; details: 20 g/ha, post-emergence at one-leaf stage, rated visually after about 3 weeks vs untreated controls
Protocol: as §2, with “STEME: Stellaria media” for “SETVI: Setaria viridis”

[7] = system: Echinochloa crus-galli (ECHCG); assay: Post-emergence herbicidal action against ECHCG; details: 20 g/ha, post-emergence at one-leaf stage, rated visually after about 3 weeks vs untreated controls
Protocol: as §2, with “ECHCG: Echinochloa crus-galli” for “SETVI: Setaria viridis”

[8] = system: Setaria viridis (SETVI); assay: Pre-emergence herbicidal action against SETVI; details: 80 g/ha, scored visually after about 3 weeks vs untreated controls
Source text: as §1, with “SETVI: Setaria viridis” for “AMARE: Amaranthus retroflexus”

[9] = system: Abutilon theophrasti (ABUTH); assay: Pre-emergence herbicidal action against ABUTH; details: 80 g/ha, scored visually after about 3 weeks vs untreated controls
Source text: as §1, with “ABUTH: Abutilon theophrasti” for “AMARE: Amaranthus retroflexus”

[10] = system: Echinochloa crus-galli (ECHCG); assay: Pre-emergence herbicidal action against ECHCG; details: 80 g/ha, scored visually after about 3 weeks vs untreated controls
Source text: as §1, with “ECHCG: Echinochloa crus-galli” for “AMARE: Amaranthus retroflexus”

SMILES | Pre-emergence action against AMARE [1] | Pre-emergence action against STEME [2] | Pre-emergence action against VIOTR [3] | Post-emergence action against SETVI [4] | Post-emergence action against AMARE [5] | Post-emergence action against STEME [6] | Post-emergence action against ECHCG [7] | Pre-emergence action against SETVI [8] | Pre-emergence action against ABUTH [9] | Pre-emergence action against ECHCG [10]
Cn1ncc(C(=O)c2ccc(C(F)(F)F)c3c2SCS3)c1O [Example 1-58] | 80% | 90% | 100% | 80% | 90% | 80% | – | – | – | –
Cn1ncc(C(=O)c2ccc(C(F)(F)C(F)(F)F)c3c2OCS3(=O)=O)c1O [Example 1-130] | 100% | 100% | – | – | 100% | 90% | – | – | – | –
Cc1nn(C)c(O)c1C(=O)c1ccc(C(F)(F)F)c2c1SCS2(=O)=O [Example 1-93] | 100% | 90% | – | – | 90% | – | 80% | – | – | –
Cn1nc(C2CC2)c(C(=O)c2ccc(C(F)(F)F)c3c2OCS3)c1O [Example 1-112] | 100% | 90% | 90% | – | 100% | 80% | 80% | – | – | –
CCn1ncc(C(=O)c2ccc(C(F)(F)C(F)(F)F)c3c2OCS3)c1O [Example 1-131] | 100% | 90% | 100% | 80% | – | – | 80% | 100% | 100% | –
CCn1ncc(C(=O)c2ccc(C(F)(F)F)c3c2SCS3(=O)=O)c1O [Example 1-89] | 100% | 100% | – | – | 90% | 80% | – | – | 90% | –
CCn1ncc(C(=O)c2ccc(C(F)(F)F)c3c2SCCS3)c1O [Example 1-65] | 100% | 100% | 100% | 100% | 80% | – | 80% | 90% | – | 80%
Cn1ncc(C(=O)c2ccc(C(F)(F)F)c3c2SCCS3)c1O [Example 1-60] | 100% | 90% | 100% | – | 90% | 80% | – | – | – | –
Cc1nn(C)c(O)c1C(=O)c1ccc(C(F)(F)F)c2c1SCCS2 [Example 1-70] | 100% | 100% | 90% | – | 90% | 80% | – | – | – | –
Cc1nn(C)c(O)c1C(=O)c1ccc(C(F)(F)F)c2c1OCS2 [Example 1-23] | 80% | 100% | – | – | 100% | 80% | – | 100% | 100% | –

Reference: patent US20210323950A1, “HERBICIDALLY ACTIVE BICYCLIC BENZOYLPYRAZOLES” (Bayer Aktiengesellschaft, priority 2018, published 2021)
